Laboratory results: patent US20210187105A1, “COMBINATION THERAPY OF ANTI-MIF ANTIBODIES AND GLUCOCORTICOIDS” (Baxalta Incorporated, priority 2012, published 2021)

Columns and labels:
[1] = test system: immune mediated-nephrotoxic nephritis (NTN) in Wistar Kyoto (WKY) rats; assay: Animal model for crescentic glomerulonephritis (nephrotoxic nephritis); format: in vivo, rat
Excerpt: This model is recognized in the art as predictable to show the effects of the invention. It is suitable to show the effects of the combination therapy over the complete range of diseases which can be subsumed under the above definition of “MIF related diseases” particularly, this model is suitable for the following diseases: Lupus nephritis, anti-GBM nephritis, ANCA nephritis, IgA nephropathy. Dexamethasone is recognized in the art as predictive for a respective glucocorticoid in the treatment of a human. […] This model has a rapid onset of disease with macrophage infiltration, fibrin deposition and tissue destruction 12. NTN is induced in male WKY rats by single intravenous injection of 0.1 ml rabbit anti-rat glomerular basement membrane serum (day 0). mAb and Dexamethasone is injected intraperitoneally at time points and dosages described below. 24 hour urine samples are collected using metabolic cages before induction of glomerulonephritis and at various time intervals after induction of nephritis for quantification of proteinuria. Sections of renal tissues are frozen for subsequent analysis by immunohistology. Morphology of renal injury is assessed in haematoxylin/eosin (H&E) and periodic acid-Schiff (PAS) stained renal tissue sections. Macrophage is detected by immunoperoxidase technique and using the monoclonal mouse antibody ED1 (Serotec, U C). The animal model was described in detail (Tam F W K, Smith J, Morel D, Karkar A M, Thompson E M, Cook H T, Pusey C D: Development of scarring and renal failure in a rat model of crescentic glomerulonephritis. Nephrol Dial Transplant 14:1658-1666, 1999).

[2] = test system: Contact hypersensitivity (CHS) response to 2,4-dinitrofluorobenzene (DNFB) in C57BL/6 mice; assay: Contact hypersensitivity (CHS) response to DNFB, ear swelling; format: in vivo, mouse; conditions: topical
Method: The Contact hypersensitivity (CHS) response to 2,4-dinitrofluorobenzene (DNFB) was determined using a modification of an earlier model described (see Ludwig, et al., 2010, Am J Pathol 176, 1339-1345). C57BL/6 mice were sensitized by treating the shaved mouse back skin with 75 μl of DNFB (Sigma, St. Louis, Mo.) solution (0.5% in acetone/olive oil, 4/1). […] the right ears of the mice were challenged with 20 μl 0.3% DNFB to cause a local inflammatory response. The vehicle (acetone/olive) oil was applied to the left ears as a control. The swelling response to DNFB, specified as the difference between the right and left ears, was measured 24 h after challenge using a micrometer (Mitutoyo Co., Tokyo, Japan). 8 mice were used per group.

[3] = single intraperitoneal injection of 0.25 mg/kg, 4 days after induction, day 8

C[C@@H]1C[C@H]2[C@@H]3CCC4=CC(=O)C=C[C@]4(C)[C@@]3(F)[C@@H](O)C[C@]2(C)[C@@]1(O)C(=O)CO [Dexamethasone, reference compound]
suboptimal dexamethasone concentration ([1]; dose finding): 0.025 mg/kg | reduction of crescent counts [1, 3]: approximately 25% | reduction of glomerular macrophage infiltration [1, 3]: approximately 53% | reduction of proteinuria ([1]; single intraperitoneal injection of 0.25 mg/kg, 4 days after induction, urine day 7 to day 8): approximately 50%

C[C@]12CCC(=O)C=C1CC[C@@H]1[C@@H]2[C@@H](O)C[C@@]2(C)[C@H]1CC[C@]2(O)C(=O)CO [hydrocortisone]
anti-inflammatory effects, ear thickness ([2]; 1% in DAC base cream ointment, without antibody): sub-optimal anti-inflammatory effects | ear swelling ([2]; suboptimal dose 1% in DAC base cream, in combination with 10 mg/kg isotype control antibody): did not reduce ear swelling
